In patent US4442090A, “Absorption-promoting compounds, compositions thereof with pharmaceuticals and/or bases for rectal administration and method of use” (Kyoto Yakuhin Kogyo Kabushiki Kaisha, priority 1980, dated 1984):
“And” between values parts separate entries of the source, which are not always exact repeats. Equal values may be shown once.

Key:
[1] = Urinary excretions of β-lactam antibiotics after rectal suppository (rabbit); format: in vivo; details: Compound (I) 5%, Witepsol H-15
Experimental: The absorption into the circulation through the rectum of the rectal suppositories thus prepared was determined by measuring urinary excretion of the pharmacologically-active substance.
Thus, Sarcina lutea and Bacillus subtilis were used as assay organisms for penicillins and cephalosporins, respectively, and the assays were performed by the paper disk method (cultivation at 37° C. for from 15 to 20 hours).

[2] = Urinary excretions of AB-PC after administration of AB-PC rectal suppository (human); format: in vivo; details: AB-PC 125 mg (potency); for Urinary excretions of AB-PC (%) (0-6 hr.): Witepsol H-15, % of dose
Experimental: The thus-obtained suppositories were administered to healthy adult male humans from the anus, and the urinary excretions of AB-PC were determined.

[3] = Blood glucose level after rectal insulin administration (rabbit); format: in vivo; details: rectal suppository, Insulin 6 I. U., Compound (I) 5%; for Blood glucose level 0 hr.: Witepsol H-15, baseline, level at hour 0 considered 100%; for Blood glucose level 0.5 hr. / Blood glucose level 1.0 hr. / Blood glucose level 2.0 hr. / Blood glucose level […]. / Blood glucose level 0.75 hr.: Witepsol H-15, relative to hour 0 = 100%
Text: To measure glucose levels, blood samples were taken from the auricular vein at timed intervals and assayed by the glucose oxidase method.
The urinary excretion values in Tables 1 to 5 are percentages based on the dose administered. The blood glucose levels in Table 6 are relative blood glucose levels when the blood glucose level at hour 0 is considered to be 100%.

[4] = Urinary excretions of aminoglycoside antibiotics after rectal suppository (rabbit); details: Compound (I) 5%, Witepsol H-15
Experimental: The thus-obtained suppositories were administered to rabbits and the urinary excretions of the pharmacologically-active substance were determined.
(§1) Each rectal suppository was administered to a depth of 2 cm from the anus of a rabbit fasted 24 hours.
(§2) To measure the urinary excretions, urine samples were collected after administration at timed intervals, diluted and assayed by the biological assay procedure.
Thus, Bacillus subtilis was used as assay organism and the assays were performed by the cylinder plate method (cultivation at 37° C. for 15 to 20 hours).

[5] = Urinary excretions of peptide drugs after rectal suppository (rabbit); details: Colistin Sodium Methanesulfonate 150,000 IU, Compound (I) 5%, Witepsol H-15
Experimental: The thus-obtained suppositories were administered to rabbits from the anus, and the urinary excretions of the pharmacologically-active substance were determined.
as §1, §2
Thus, Escherichia coli was used as assay organism and the assays were performed by the cylinder plate method (cultivation at 37° C. for 15 to 20 hours).

[6] = Kanamycin sulfate 125 mg (potency)
[7] = Compound (I) 10%, Witepsol H-15, Table 3
[8] = Fortimicin sulfate 125 mg (potency)
[9] = Gentamicin sulfate 125 mg (potency)
[10] = Dibekacin sulfate 125 mg (potency)

Urinary excretions (%) 0-2 hr. [5]	Urinary excretions (%) 2-4 hr. [5]	Urinary excretions (%) 4-6 hr. [5]	Urinary excretions (%) Total (0-6 hr.) [5]	Urinary excretions (%) 0-2 hr. [4, 9] [%]	Urinary excretions (%) 2-4 hr. [4, 9] [%]	Urinary excretions (%) 4-6 hr. [4, 9] [%]	Urinary excretions (%) Total (0-6 hr.) [4, 9] [%]	SMILES	Urinary excretions of AB-PC (%) (0-6 hr.) ([2]; added compound 10%)	Blood glucose level 0 hr. [3] [%]	Blood glucose level 0.5 hr. [3] [%]	Blood glucose level 1.0 hr. [3] [%]	Blood glucose level 2.0 hr. [3] [%]	Blood glucose level […]. [3] [%]	Blood glucose level 0.75 hr. [3] [%]	other results
–	–	–	–	–	–	–	–	CCCCOc1ccc(C(=O)O)cc1 [Compound 3-Na, p-Butoxybenzoic acid]	20.9	100	60.0	50.5	103.3	79.5	–	Urinary excretions (%) 0-2 hr. ([1]; Cefmetazole 125 mg (potency)): 45.0%; Urinary excretions (%) 2-4 hr. ([1]; Cefmetazole 125 mg (potency)): 20.0%; Urinary excretions (%) 4-6 hr. ([1]; Cefmetazole 125 mg (potency)): 1.5%; Urinary excretions (%) Total (0-6 hr.) ([1]; Cefmetazole 125 mg (potency)): 66.5%; Urinary excretions (%) 0-2 hr. ([1]; FK-749 125 mg (potency)): 41.6%; Urinary excretions (%) 2-4 hr. ([1]; FK-749 125 mg (potency)): 19.2%; Urinary excretions (%) 4-6 hr. ([1]; FK-749 125 mg (potency)): 3.0%; Urinary excretions (%) Total (0-6 hr.) ([1]; FK-749 125 mg (potency)): 63.8%; Urinary excretions (%) 0-2 hr. [4, 6]: 45.1%; Urinary excretions (%) 4-6 hr. [4, 6]: 2.6%; Urinary excretions (%) Total (0-6 hr.) [4, 6]: 59.8%
21.2% and 18.5%	10.0% and 8.0%	1.2% and 0.8%	32.4% and 27.3%	45.0	6.0	1.5	52.5	CCCCCCCC(=O)N[C@@H](Cc1ccccc1)C(=O)O [Compound 23-Na, N--Capryloyl-L-phenylalanine]	–	100	59.0	–	103.0	69.5	–	Urinary excretions (%) 0-2 (hr.) [2, 7]: 24.0%; Urinary excretions (%) 2-4 (hr.) [2, 7]: 3.0%; Urinary excretions (%) 4-6 (hr.) [2, 7]: 1.2%; Urinary excretions (%) Total (0-6 hr.) [2, 7]: 28.2%; Urinary excretions (%) 0-2 hr. [4, 8]: 46.0%; Urinary excretions (%) 2-4 hr. [4, 8]: 8.0%; Urinary excretions (%) 4-6 hr. [4, 8]: 2.0%; Urinary excretions (%) Total (0-6 hr.) [4, 8]: 56.0%
20.5%	9.2%	1.8%	31.5%	41.2	9.9	3.1	53.2	O=C(O)CCCCCCCCCCC(=O)O [Compound 2-Na, 1,10-Decamethylenedicarboxylic acid]	25.6	100	57.0	–	98.5	68.5	50.5	Urinary excretions (%) 0-2 hr. ([1]; Cefazolin 125 mg (potency)): 41.5%; Urinary excretions (%) 2-4 hr. ([1]; Cefazolin 125 mg (potency)): 16.9%; Urinary excretions (%) 4-6 hr. ([1]; Cefazolin 125 mg (potency)): 3.5%; Urinary excretions (%) Total (0-6 hr.) ([1]; Cefazolin 125 mg (potency)): 61.9%
–	–	–	–	–	–	–	–	CCCC(=O)NC(C(=O)O)c1ccccc1 (racemic) [Compound 29-Na, N--Butyryl-DL-phenylglycine]	–	100	60.0	55.0	111.3	81.2	50.6	Urinary excretions (%) 0-2 hr. ([1]; 6059-S 125 mg (potency)): 47.2%; Urinary excretions (%) 2-4 hr. ([1]; 6059-S 125 mg (potency)): 8.6%; Urinary excretions (%) 4-6 hr. ([1]; 6059-S 125 mg (potency)): 2.0%; Urinary excretions (%) Total (0-6 hr.) ([1]; 6059-S 125 mg (potency)): 57.8%
–	–	–	–	–	–	–	–	O=C(O)CCCCCCCCCCCC(=O)O [Compound 5-Na, 1,11-Undecamethylene dicarboxylic acid]	–	100	60.0	55.2	110.3	80.5	51.7	Urinary excretions (%) 0-2 hr. ([1]; Cefotiam 125 mg (potency)): 40.0%; Urinary excretions (%) 2-4 hr. ([1]; Cefotiam 125 mg (potency)): 8.0%; Urinary excretions (%) 4-6 hr. ([1]; Cefotiam 125 mg (potency)): 2.1%; Urinary excretions (%) Total (0-6 hr.) ([1]; Cefotiam 125 mg (potency)): 60.1%; Urinary excretions of AB-PC (%) (0-6 hr.) ([2]; Compound (I) 1%): 30.8%; Urinary excretions (%) 0-2 hr. [4, 10]: 41.1%; Urinary excretions (%) 2-4 hr. [4, 10]: 8.8%; Urinary excretions (%) 4-6 hr. [4, 10]: 1.1%; Urinary excretions (%) Total (0-6 hr.) [4, 10]: 51.0%
